Data reported in US20240415914A1, “Water Dispersible Cannabinoid Compositions” (priority 2021, published 2024).

Assay: Stability of cannabinoid and Vitamin E components of Beverage 2 (AB Red) stored at 8° C. and 21-25° C., LCMSMS over 570 days
Description: The LCMSMS was calibrated for 0-50 ng/ml cannabinoids with the same resin material used in the preparation of the concentrates. At each time period, 100 μml of beverage was diluted with 10 ml of methanol and injected into the LCMSMS for analysis.

Cc1c(C)c2c(c(C)c1OC(=O)CCC(=O)O)CC[C@@](C)(CCC[C@H](C)CCC[C@H](C)CCCC(C)C)O2 [α-Tocopheryl succinate]
Stability of Vitamin Es in AB Red (8° C., 26 days): 12.5 µg/mL | Stability of Vitamin Es in AB Red (8° C., 29 days): 11.6 µg/mL | Stability of Vitamin Es in AB Red (8° C., 30 days): 12.4 µg/mL | Stability of Vitamin Es in AB Red (8° C., 60 days): 11.4 µg/mL | Stability of Vitamin Es in AB Red (8° C., 90 days): 11.5 µg/mL | Stability of Vitamin Es in AB Red (8° C., 120 days): 12.2 µg/mL | Stability of Vitamin Es in AB Red (8° C., 150 days): 11.5 µg/mL | Stability of Vitamin Es in AB Red (8° C., 180 days): 11.4 µg/mL | Stability of Vitamin Es in AB Red (8° C., 210 days): 11.4 µg/mL | Stability of Vitamin Es in AB Red (8° C., 240 days): 11.6 µg/mL | Stability of Vitamin Es in AB Red (8° C., 270 days): 11.5 µg/mL | Stability of Vitamin Es in AB Red (8° C., 300 days): 11.2 µg/mL | Stability of Vitamin Es in AB Red (8° C., 330 days): 11.7 µg/mL | Stability of Vitamin Es in AB Red (8° C., 390 days): 11.2 µg/mL | Stability of Vitamin Es in AB Red (8° C., 420 days): 11.0 µg/mL | Stability of Vitamin Es in AB Red (8° C., 450 days): 11.2 µg/mL | Stability of Vitamin Es in AB Red (8° C., 480 days): 10.9 µg/mL | Stability of Vitamin Es in AB Red (8° C., 510 days): 10.8 µg/mL | Stability of Vitamin Es in AB Red (8° C., 540 days): 10.9 µg/mL | Stability of Vitamin Es in AB Red (8° C., 570 days): 10.6 µg/mL | Stability of Vitamin Es in AB Red (21-25° C., 0 days): 12.5 µg/mL | Stability of Vitamin Es in AB Red (21-25° C., 1 days): 12.5 µg/mL | Stability of Vitamin Es in AB Red (21-25° C., 2 days): 12.0 µg/mL | Stability of Vitamin Es in AB Red (21-25° C., 3 days): 11.9 µg/mL | Stability of Vitamin Es in AB Red (21-25° C., 5 days): 11.9 µg/mL | Stability of Vitamin Es in AB Red (21-25° C., 8 days): 12.0 µg/mL | Stability of Vitamin Es in AB Red (21-25° C., 9 days): 11.7 µg/mL | Stability of Vitamin Es in AB Red (21-25° C., 10 days): 12.0 µg/mL | Stability of Vitamin Es in AB Red (21-25° C., 11 days): 12.0 µg/mL | Stability of Vitamin Es in AB Red (21-25° C., 12 days): 12.4 µg/mL | Stability of Vitamin Es in AB Red (21-25° C., 15 days): 11.6 µg/mL | Stability of Vitamin Es in AB Red (21-25° C., 16 days): 11.6 µg/mL | Stability of Vitamin Es in AB Red (21-25° C., 17 days): 12.6 µg/mL | Stability of Vitamin Es in AB Red (21-25° C., 18 days): 12.1 µg/mL | Stability of Vitamin Es in AB Red (21-25° C., 19 days): 11.9 µg/mL | Stability of Vitamin Es in AB Red (21-25° C., 22 days): 11.6 µg/mL | Stability of Vitamin Es in AB Red (21-25° C., 23 days): 12.7 µg/mL | Stability of Vitamin Es in AB Red (21-25° C., 24 days): 12.4 µg/mL | Stability of Vitamin Es in AB Red (21-25° C., 25 days): 11.9 µg/mL | Stability of Vitamin Es in AB Red (21-25° C., 26 days): 12.1 µg/mL | Stability of Vitamin Es in AB Red (21-25° C., 29 days): 12.4 µg/mL | Stability of Vitamin Es in AB Red (21-25° C., 30 days): 12.1 µg/mL | Stability of Vitamin Es in AB Red (21-25° C., 60 days): 11.7 µg/mL | Stability of Vitamin Es in AB Red (21-25° C., 90 days): 11.6 µg/mL | Stability of Vitamin Es in AB Red (21-25° C., 120 days): 11.5 µg/mL | Stability of Vitamin Es in AB Red (21-25° C., 150 days): 11.4 µg/mL | Stability of Vitamin Es in AB Red (21-25° C., 180 days): 12.3 µg/mL | Stability of Vitamin Es in AB Red (21-25° C., 210 days): 11.6 µg/mL | Stability of Vitamin Es in AB Red (21-25° C., 240 days): 11.6 µg/mL | Stability of Vitamin Es in AB Red (21-25° C., 270 days): 11.0 µg/mL | Stability of Vitamin Es in AB Red (21-25° C., 300 days): 11.4 µg/mL | Stability of Vitamin Es in AB Red (21-25° C., 330 days): 11.4 µg/mL | Stability of Vitamin Es in AB Red (21-25° C., 390 days): 10.8 µg/mL | Stability of Vitamin Es in AB Red (21-25° C., 420 days): 11.0 µg/mL | Stability of Vitamin Es in AB Red (21-25° C., 450 days): 11.2 µg/mL | Stability of Vitamin Es in AB Red (21-25° C., 480 days): 10.4 µg/mL | Stability of Vitamin Es in AB Red (21-25° C., 510 days): 10.6 µg/mL | Stability of Vitamin Es in AB Red (21-25° C., 540 days): 10.3 µg/mL | Stability of Vitamin Es in AB Red (21-25° C., 570 days): 10.6 µg/mL
